Measured values as given in the NIST ThermoML archive (doi:10.1021/je8001128).
± gives the expanded uncertainty stated by the source.

Columns and labels:
[1] = 298.15 K; 101 kPa; Liquid
[2] = wn = mass fraction of the nth substance listed; conditions: 298.15 K, 101 kPa, Liquid

CCCCn1cc[n+](C)c1.F[B-](F)(F)F [1-butyl-3-methylimidazolium tetrafluoroborate]
[1]
Conditions	mass density [kg/m3]	viscosity [mPa·s]
–	1211.05 ± 8.6	110.3 ± 6.6

CCCCn1cc[n+](C)c1.F[B-](F)(F)F [1-butyl-3-methylimidazolium tetrafluoroborate] + CC(C)=O
[2]
Conditions	mass density [kg/m3]	viscosity [mPa·s]
w1 = 0.1724	846.15 ± 0.96	0.5 ± 0.1
w1 = 0.3033	894.39 ± 1.2	0.7 ± 0.1
w1 = 0.495	970.29 ± 2	1.5 ± 0.1
w1 = 0.6276	1026.98 ± 3	3 ± 0.1
w1 = 0.677	1048.91 ± 3.5	4 ± 0.1
w1 = 0.7197	1068.29 ± 4	5.2 ± 0.2
w1 = 0.7603	1086.16 ± 4.4	6.9 ± 0.2
w1 = 0.7933	1102.46 ± 4.9	9 ± 0.3
w1 = 0.8267	1118.43 ± 5.4	12 ± 0.3
w1 = 0.8536	1131.38 ± 5.8	15.1 ± 0.4
w1 = 0.9024	1155.29 ± 6.6	25.5 ± 0.7
w1 = 0.939	1174.32 ± 7.2	40.1 ± 1.2
w1 = 0.9707	1193.01 ± 7.9	64.7 ± 2
w1 = 1	1211.05 ± 8.6	110.3 ± 6.6

CCCCn1cc[n+](C)c1.F[B-](F)(F)F [1-butyl-3-methylimidazolium tetrafluoroborate] + CCOC=O
[2], w1 = 1
Conditions	mass density [kg/m3]	viscosity [mPa·s]
–	1211.05 ± 8.6	110.3 ± 6.6

CCCCn1cc[n+](C)c1.F[B-](F)(F)F [1-butyl-3-methylimidazolium tetrafluoroborate] + COC(C)=O
[2], w1 = 1
Conditions	mass density [kg/m3]	viscosity [mPa·s]
–	1211.05 ± 8.6	110.3 ± 6.6

CCCCn1cc[n+](C)c1.F[B-](F)(F)F [1-butyl-3-methylimidazolium tetrafluoroborate] + COC=O
[2], w1 = 1
Conditions	mass density [kg/m3]	viscosity [mPa·s]
–	1211.05 ± 8.6	110.3 ± 6.6

CC(C)=O [acetone] + CCCCn1cc[n+](C)c1.F[B-](F)(F)F
[2], w2 = 0
Conditions	mass density [kg/m3]	viscosity [mPa·s]
–	785.36 ± 0.81	0.3 ± 0.1

CCOC=O [ethyl methanoate] + CCCCn1cc[n+](C)c1.F[B-](F)(F)F
[2]
Conditions	mass density [kg/m3]	viscosity [mPa·s]
w2 = 0	928.48 ± 0.52	0.4 ± 0.1
w2 = 0.1384	961.2 ± 0.72	0.6 ± 0.1
w2 = 0.254	989.2 ± 1	1 ± 0.1
w2 = 0.4306	1040.81 ± 1.9	2 ± 0.1
w2 = 0.5721	1082.16 ± 3	3.8 ± 0.1
w2 = 0.6278	1098.26 ± 3.5	5.1 ± 0.2
w2 = 0.6729	1111.27 ± 4	6.5 ± 0.2
w2 = 0.7159	1123.69 ± 4.4	8.5 ± 0.2
w2 = 0.751	1133.73 ± 4.8	10.6 ± 0.3
w2 = 0.7847	1143.34 ± 5.2	13.3 ± 0.4
w2 = 0.8199	1153.32 ± 5.7	16.9 ± 0.5
w2 = 0.8756	1169.16 ± 6.5	26.6 ± 0.7
w2 = 0.9231	1183.78 ± 7.2	43.7 ± 1.3
w2 = 0.9647	1198.3 ± 7.9	69 ± 2.3

COC(C)=O [methyl ethanoate] + CCCCn1cc[n+](C)c1.F[B-](F)(F)F
[2]
Conditions	mass density [kg/m3]	viscosity [mPa·s]
w2 = 0	915.97 ± 0.55	0.4 ± 0.1
w2 = 0.1386	964.5 ± 0.72	0.6 ± 0.1
w2 = 0.254	996.04 ± 1	0.9 ± 0.1
w2 = 0.4326	1045.98 ± 2	2 ± 0.1
w2 = 0.5703	1084.58 ± 3	3.6 ± 0.1
w2 = 0.622	1098.9 ± 3.5	4.7 ± 0.1
w2 = 0.6699	1112.24 ± 4	6.2 ± 0.2
w2 = 0.7149	1124.8 ± 4.4	8.2 ± 0.2
w2 = 0.7526	1136.01 ± 4.9	10.2 ± 0.3
w2 = 0.7875	1144.94 ± 5.3	13.1 ± 0.4
w2 = 0.8204	1153.95 ± 5.7	16.3 ± 0.5
w2 = 0.8766	1169.55 ± 6.5	25.8 ± 0.7
w2 = 0.9243	1182.88 ± 7.2	40.8 ± 1.2
w2 = 0.9648	1197.7 ± 7.9	63.7 ± 1.9

COC=O [methyl methanoate] + CCCCn1cc[n+](C)c1.F[B-](F)(F)F
[2]
Conditions	mass density [kg/m3]	viscosity [mPa·s]
w2 = 0	964.78 ± 0.45	0.3 ± 0.1
w2 = 0.1653	1011.72 ± 0.78	0.5 ± 0.1
w2 = 0.2974	1045.55 ± 1.4	0.9 ± 0.1
w2 = 0.4895	1091.4 ± 2.5	1.9 ± 0.1
w2 = 0.6165	1121.47 ± 3.6	3.5 ± 0.1
w2 = 0.6592	1131.2 ± 4	4.4 ± 0.1
w2 = 0.7145	1143.64 ± 4.6	6.3 ± 0.2
w2 = 0.7547	1152.73 ± 5.1	8.2 ± 0.2
w2 = 0.7899	1160.43 ± 5.5	10.6 ± 0.3
w2 = 0.8204	1167.19 ± 5.9	13.7 ± 0.4
w2 = 0.8492	1173.37 ± 6.2	17.12 ± 0.48
w2 = 0.8977	1182.34 ± 6.9	28.3 ± 0.8
w2 = 0.9376	1192.78 ± 7.5	44.2 ± 1.3
w2 = 0.9711	1202.31 ± 8	68.4 ± 2.2
